Among the data in patent US10543212B2, “Substituted amines for treating cardiac diseases” (Cardurion Pharmaceuticals, LLC, priority 2017, dated 2020) are IC50 values, retold here.

T1 sequence (Q13557 1-478 isoform Q13557-12): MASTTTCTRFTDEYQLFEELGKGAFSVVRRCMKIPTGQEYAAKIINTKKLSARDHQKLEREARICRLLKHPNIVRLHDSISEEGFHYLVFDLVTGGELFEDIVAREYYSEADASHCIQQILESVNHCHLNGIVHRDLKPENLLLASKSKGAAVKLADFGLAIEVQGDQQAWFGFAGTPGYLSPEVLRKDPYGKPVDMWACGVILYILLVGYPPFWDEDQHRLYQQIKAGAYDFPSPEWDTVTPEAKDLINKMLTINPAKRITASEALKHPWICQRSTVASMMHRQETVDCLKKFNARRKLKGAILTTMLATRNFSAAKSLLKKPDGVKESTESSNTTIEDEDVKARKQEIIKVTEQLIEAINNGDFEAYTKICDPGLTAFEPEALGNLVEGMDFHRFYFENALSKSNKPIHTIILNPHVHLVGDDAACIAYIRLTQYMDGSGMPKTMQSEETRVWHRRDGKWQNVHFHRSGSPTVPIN

The assay addresses T1, Full-length, GST-tagged, human CaMKIIδ (Homo sapiens, UniProt Q13557).
T1 construct: Full-Length, Glutathione-S-Transferase(GST)-Tagged, Human CaMKIIδ was purchased from Carna Biosciences; purchased Carna Biosciences 02-111
Nature of the assay: CaMKIIδ binding assay (TR-FRET with BODIPY-labeled probe ligand). Particulars: Table 2; CaMKIIδ binding assay, activity given as class A/B/C. The method, boiled down:
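TR-FRET probe-displacement binding: 0.5 nM GST-CaMKIIδ with 10 μg/mL calmodulin, 1 mM CaCl2, 0.21 nM Tb-anti-GST Ab and 300 nM BODIPY probe in HEPES pH 7.6 buffer. Eight-point 4-fold dilutions, 1 hr at room temperature. IC50 from logistic fit; 100% inhibition defined by 3 μM parent compound.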
For orientation: Time-resolved FRET reads energy transfer from a long-lived donor to a nearby acceptor.
Usually IC50 stands for the concentration at which inhibition is half-maximal. Low readings indicate higher potency, high ones lower potency. For the compound `C[C@@H](Cn1cnnn1)Oc1cc(-c2cnc(Nc3cn(C)nc3OCC(F)(F)F)nc2)ccc1Cl` [Example 759, (S)-5-(3-((1-(1H-tetrazol-1-yl)propan-2-yl)oxy)-4-chlorophenyl)-N-(1-methyl-3-(2,2,2-trifluoroethoxy)-1H-pyrazol-4-yl)pyrimidin-2-amine], the IC50 is < 10 nM. Consider `C[C@@H](Cn1cnnn1)Oc1cc(-c2cnc(Nc3cn(CC(F)F)nc3OCC(F)(F)F)nc2)ccc1Cl` [Example 760, (S)-5-(3-((1-(1H-tetrazol-1-yl)propan-2-yl)oxy)-4-chlorophenyl)-N-(1-(2,2-difluoroethyl)-3-(2,2,2-trifluoroethoxy)-1H-pyrazol-4-yl)pyrimidin-2-amine], for which the concentration for half-maximal inhibition (IC50) was < 10 nM. The compound `C[C@@H](Cn1cnnn1)Oc1cc(-c2cnc(Nc3cn([C@@H](C)C(=O)N4CCOCC4)nc3C(F)(F)F)nc2)ccc1Cl` [Example 761, (S)-2-(4-((5-(3-(((S)-1-(1H-tetrazol-1-yl)propan-2-yl)oxy)-4-chlorophenyl)pyrimidin-2-yl)amino)-3-(trifluoromethyl)-1H-pyrazol-1-yl)-1-morpholinopropan-1-one] yielded an IC50 of 10 to 100 nM. Turning to `C[C@@H](Cn1cnnn1)Oc1cc(-c2cnc(Nc3cc(N4CC(CN5CCOCC5)C4)ccc3F)nc2)ccc1C#N` [Example 762, (S)-2-((1-(1H-tetrazol-1-yl)propan-2-yl)oxy)-4-(2-((2-fluoro-5-(3-(morpholinomethyl)azetidin-1-yl)phenyl)amino)pyrimidin-5-yl)benzonitrile], the IC50 is < 10 nM. Consider `C[C@@H](Cn1cnnn1)Oc1cc(-c2cnc(Nc3cn(C4CCCCO4)nc3OCC(F)(F)F)nc2)ccc1C#N` (stereo partly drawn) [Example 763, 2-(((S)-1-(1H-tetrazol-1-yl)propan-2-yl)oxy)-4-(2-((1-(tetrahydro-2H-pyran-2-yl)-3-(2,2,2-trifluoroethoxy)-1H-pyrazol-4-yl)amino)pyrimidin-5-yl)benzonitrile], for which the IC50 is < 10 nM. With `CCn1cc(Nc2ncc(-c3ccc(C#N)c(O[C@@H](C)Cn4cnnn4)c3)cn2)c(OCC(F)(F)F)n1` [Example 764, (S)-2-((1-(1H-tetrazol-1-yl)propan-2-yl)oxy)-4-(2-((1-ethyl-3-(2,2,2-trifluoroethoxy)-1H-pyrazol-4-yl)amino)pyrimidin-5-yl)benzonitrile], the IC50 is < 10 nM. On to `C[C@@H](Cn1cnnn1)Oc1cc(-c2cnc(Nc3cn(C)nc3OCC(F)(F)F)nc2)ccc1C#N` [Example 765, (S)-2-((1-(1H-tetrazol-1-yl)propan-2-yl)oxy)-4-(2-((1-methyl-3-(2,2,2-trifluoroethoxy)-1H-pyrazol-4-yl)amino)pyrimidin-5-yl)benzonitrile], for which the concentration for half-maximal inhibition (IC50) is < 10 nM. With `C[C@@H](Cn1cnnn1)Oc1cc(-c2cnc(Nc3cn(C4CCN(C(=O)OC(C)(C)C)CC4)nc3C(F)F)nc2)ccc1Cl` [Example 766, tert-butyl (S)-4-(4-((5-(3-((1-(1H-tetrazol-1-yl)propan-2-yl)oxy)-4-chlorophenyl)pyrimidin-2-yl)amino)-3-(difluoromethyl)-1H-pyrazol-1-yl)piperidine-1-carboxylate], the IC50 lay in the range of 10 to 100 nM. `C[C@@H](Cn1cnnn1)Oc1cc(-c2cnc(Nc3cn(CC(F)F)nc3OCC(F)(F)F)nc2)ccc1C#N` [Example 767, (S)-2-((1-(1H-tetrazol-1-yl)propan-2-yl)oxy)-4-(2-((1-(2,2-difluoroethyl)-3-(2,2,2-trifluoroethoxy)-1H-pyrazol-4-yl)amino)pyrimidin-5-yl)benzonitrile]: the 50% inhibitory concentration (IC50) is < 10 nM. `C[C@@H](Cn1cnnn1)Oc1cc(-c2cnc(Nc3cc(N4CCN(C5CCOCC5)CC4)ccc3OC(F)(F)F)nc2)ccc1Cl` [Example 768, (S)-5-(3-((1-(1H-tetrazol-1-yl)propan-2-yl)oxy)-4-chlorophenyl)-N-(5-(4-(tetrahydro-2H-pyran-4-yl)piperazin-1-yl)-2-(trifluoromethoxy)phenyl)pyrimidin-2-amine]: the IC50 is < 10 nM.

With `C[C@@H](Cn1cnnn1)Oc1cc(-c2cnc(Nc3cn(C4CCN(C5CCOCC5)CC4)nc3C(F)F)nc2)ccc1Cl` [Example 769, (S)-5-(3-((1-(1H-tetrazol-1-yl)propan-2-yl)oxy)-4-chlorophenyl)-N-(3-(difluoromethyl)-1-(1-(tetrahydro-2H-pyran-4-yl)piperidin-4-yl)-1H-pyrazol-4-yl)pyrimidin-2-amine], the half-inhibitory concentration (IC50) was < 10 nM. Next, `COc1ncc(N2CCN(C3CCOCC3)CC2)cc1Nc1ncc(-c2ccc(Cl)c(O[C@@H](C)Cn3cnnn3)c2)cn1` [Example 770, (S)-5-(3-((1-(1H-tetrazol-1-yl)propan-2-yl)oxy)-4-chlorophenyl)-N-(2-methoxy-5-(4-(tetrahydro-2H-pyran-4-yl)piperazin-1-yl)pyridin-3-yl)pyrimidin-2-amine]: < 10 nM; `C[C@@H](Cn1cnnn1)Oc1cc(-c2cnc(Nc3cn(C4CCNCC4)nc3C(F)F)nc2)ccc1Cl` [Example 771, (S)-5-(3-((1-(1H-tetrazol-1-yl)propan-2-yl)oxy)-4-chlorophenyl)-N-(3-(difluoromethyl)-1-(piperidin-4-yl)-1H-pyrazol-4-yl)pyrimidin-2-amine]: < 10 nM; `C[C@@H](Cn1cnnn1)Oc1cc(-c2cnc(Nc3cn([C@H]4CC[C@@H](N5CCC5)CC4)nc3C(F)(F)F)nc2)ccc1C#N` [Example 773, 2-(((S)-1-(1H-tetrazol-1-yl)propan-2-yl)oxy)-4-(2-((1-(cis-4-(azetidin-1-yl)cyclohexyl)-3-(trifluoromethyl)-1H-pyrazol-4-yl)amino)pyrimidin-5-yl)benzonitrile]: < 10 nM. For the compound `C[C@@H](Cn1cnnn1)Oc1cc(-c2cnc(Nc3cn(C4CC4)nc3OCC(F)(F)F)nc2)ccc1Cl` [Example 774, (S)-5-(3-((1-(1H-tetrazol-1-yl)propan-2-yl)oxy)-4-chlorophenyl)-N-(1-cyclopropyl-3-(2,2,2-trifluoroethoxy)-1H-pyrazol-4-yl)pyrimidin-2-amine], the IC50 was < 10 nM. To `C[C@@H](Cn1cnnn1)Oc1cc(-c2cnc(Nc3cn([C@@H](C)CO)nc3OCC(F)(F)F)nc2)ccc1Cl` [Example 775, (S)-2-(4-((5-(3-(((S)-1-(1H-tetrazol-1-yl)propan-2-yl)oxy)-4-chlorophenyl)pyrimidin-2-yl)amino)-3-(2,2,2-trifluoroethoxy)-1H-pyrazol-1-yl)propan-1-ol] belongs < 10 nM; to `COCC(C)n1cc(Nc2ncc(-c3ccc(Cl)c(O[C@@H](C)Cn4cnnn4)c3)cn2)c(OCC(F)(F)F)n1` (stereo partly drawn) [Example 776, 5-(3-(((S)-1-(1H-tetrazol-1-yl)propan-2-yl)oxy)-4-chlorophenyl)-N-(1-(1-methoxypropan-2-yl)-3-(2,2,2-trifluoroethoxy)-1H-pyrazol-4-yl)pyrimidin-2-amine], < 10 nM. Next, `C[C@@H](Cn1cnnn1)Oc1cc(-c2cnc(Nc3cn(C4CCCCNC4=O)nc3OCC(F)(F)F)nc2)ccc1Cl` (stereo partly drawn) [Example 777, 3-(4-((5-(3-(((S)-1-(1H-tetrazol-1-yl)propan-2-yl)oxy)-4-chlorophenyl)pyrimidin-2-yl)amino)-3-(2,2,2-trifluoroethoxy)-1H-pyrazol-1-yl)azepan-2-one]: < 10 nM. Regarding `C[C@@H](Cn1cnnn1)Oc1cc(-c2cnc(Nc3cn([C@H]4CC[C@@H](N5CCC5)CC4)nc3C(F)(F)F)nc2)ccc1Cl` [Example 778, 5-(3-(((S)-1-(1H-tetrazol-1-yl)propan-2-yl)oxy)-4-chlorophenyl)-N-(1-(cis-4-(azetidin-1-yl)cyclohexyl)-3-(trifluoromethyl)-1H-pyrazol-4-yl)pyrimidin-2-amine], the IC50 was < 10 nM. As to `C[C@@H](Cn1cnnn1)Oc1cc(-c2cnc(Nc3cn([C@H]4CC[C@H](N5CCC5)CC4)nc3C(F)(F)F)nc2)ccc1Cl` [Example 779, 5-(3-(((S)-1-(1H-tetrazol-1-yl)propan-2-yl)oxy)-4-chlorophenyl)-N-(1-(trans-4-(azetidin-1-yl)cyclohexyl)-3-(trifluoromethyl)-1H-pyrazol-4-yl)pyrimidin-2-amine], the half-inhibitory concentration (IC50) is < 10 nM. For the compound `C[C@@H](Cn1cnnn1)Oc1cc(-c2cnc(Nc3cn([C@H]4CC[C@@H](N5CCOCC5)CC4)nc3OCC(F)(F)F)nc2)ccc1Cl` [Example 780, 5-(3-(((S)-1-(1H-tetrazol-1-yl)propan-2-yl)oxy)-4-chlorophenyl)-N-(1-(cis-4-morpholinocyclohexyl)-3-(2,2,2-trifluoroethoxy)-1H-pyrazol-4-yl)pyrimidin-2-amine], the 50% inhibitory concentration (IC50) is < 10 nM. `C[C@@H](Cn1cnnn1)Oc1cc(-c2cnc(Nc3cn([C@H]4CC[C@@H](N5CCOCC5)CC4)nc3C(F)(F)F)nc2)ccc1Cl` [Example 781, 5-(3-(((S)-1-(1H-tetrazol-1-yl)propan-2-yl)oxy)-4-chlorophenyl)-N-(1-(cis-4-morpholinocyclohexyl)-3-(trifluoromethyl)-1H-pyrazol-4-yl)pyrimidin-2-amine]: the IC50 was < 10 nM. As to `C[C@@H](Cn1cccn1)Oc1cc(-c2cnc(Nc3cn(C4CCN(C5CCOCC5)CC4)nc3OCC(F)(F)F)nc2)ccc1C#N` [Example 782, (S)-2-((1-(1H-pyrazol-1-yl)propan-2-yl)oxy)-4-(2-((1-(1-(tetrahydro-2H-pyran-4-yl)piperidin-4-yl)-3-(2,2,2-trifluoroethoxy)-1H-pyrazol-4-yl)amino)pyrimidin-5-yl)benzonitrile], the IC50 is < 10 nM.

Regarding `C[C@@H](Cn1cnnn1)Oc1cc(-c2cnc(Nc3cn(CCCCO)nc3OCC(F)(F)F)nc2)ccc1Cl` [Example 783, (S)-4-(4-((5-(3-((1-(1H-tetrazol-1-yl)propan-2-yl)oxy)-4-chlorophenyl)pyrimidin-2-yl)amino)-3-(2,2,2-trifluoroethoxy)-1H-pyrazol-1-yl)butan-1-ol], the IC50 was < 10 nM.
